Results: ChEMBL document CHEMBL3400015, “Tertiary amides of Salinomycin: A new group of antibacterial agents against Bacillus anthracis and methicillin-resistant Staphylococcus epidermidis” (Bioorg Med Chem Lett, 2015)

Experiments:
Format in all cases: functional
[1] = system: Staphylococcus aureus; experiment: Antimicrobial activity against Staphylococcus aureus ATCC 6538 after 18 hrs by twofold serial broth dilution method; conditions: ATCC 6538, 18 h
[2] = system: Staphylococcus aureus; experiment: Antimicrobial activity against Staphylococcus aureus […] after 18 hrs by twofold serial broth dilution method
[3] = system: Staphylococcus epidermidis; experiment: Antimicrobial activity against Staphylococcus epidermidis ATCC 12228 after 18 hrs by twofold serial broth dilution method; conditions: ATCC 12228, 18 h
[4] = system: Escherichia coli; experiment: Antimicrobial activity against Escherichia coli ATCC 10538 after 18 hrs by twofold serial broth dilution method; conditions: ATCC 10538, 18 h
[5] = system: Escherichia coli; experiment: Antimicrobial activity against Escherichia coli ATCC 25922 after 18 hrs by twofold serial broth dilution method; conditions: ATCC 25922, 18 h
[6] = system: Escherichia coli; experiment: Antimicrobial activity against Escherichia coli NCTC 8196 after 18 hrs by twofold serial broth dilution method; conditions: NCTC 8196, 18 h
[7] = system: Pseudomonas aeruginosa; experiment: Antimicrobial activity against Pseudomonas aeruginosa ATCC 15442 after 18 hrs by twofold serial broth dilution method; conditions: ATCC 15442, 18 h
[8] = system: Pseudomonas aeruginosa; experiment: Antimicrobial activity against Pseudomonas aeruginosa NCTC 6749 after 18 hrs by twofold serial broth dilution method; conditions: NCTC 6749, 18 h
[9] = system: Pseudomonas aeruginosa; experiment: Antimicrobial activity against Pseudomonas aeruginosa ATCC 27853 after 18 hrs by twofold serial broth dilution method; conditions: ATCC 27853, 18 h
[10] = system: Bacillus anthracis; experiment: Antimicrobial activity against Bacillus anthracis 34F2 after 18 hrs by twofold serial broth dilution method; conditions: 34F2, 18 h
[11] = system: Staphylococcus aureus; experiment: Bactericidal activity against Staphylococcus aureus NCTC 4163 after 24 hrs; conditions: NCTC 4163, 24 h, read-out: MBC99.9
[12] = system: Staphylococcus aureus; experiment: Bactericidal activity against Staphylococcus aureus ATCC 25923 after 24 hrs; conditions: ATCC 25923, 24 h, read-out: MBC99.9
[13] = system: Staphylococcus aureus; experiment: Bactericidal activity against Staphylococcus aureus ATCC 6538 after 24 hrs; conditions: ATCC 6538, 24 h, read-out: MBC99.9
[14] = system: Staphylococcus aureus; experiment: Bactericidal activity against Staphylococcus aureus […] after 24 hrs; conditions: read-out: MBC99.9
[15] = system: Staphylococcus epidermidis; experiment: Bactericidal activity against Staphylococcus epidermidis ATCC 12228 after 24 hrs; conditions: ATCC 12228, 24 h, read-out: MBC99.9
[16] = system: Escherichia coli; experiment: Bactericidal activity against Escherichia coli ATCC 25922 after 24 hrs; conditions: ATCC 25922, 24 h, read-out: MBC99.9
[17] = system: Escherichia coli; experiment: Bactericidal activity against Escherichia coli NCTC 8196 after 24 hrs; conditions: NCTC 8196, 24 h, read-out: MBC99.9
[18] = system: Pseudomonas aeruginosa; experiment: Bactericidal activity against Pseudomonas aeruginosa ATCC 15442 after 24 hrs; conditions: ATCC 15442, 24 h, read-out: MBC99.9
[19] = system: Pseudomonas aeruginosa; experiment: Bactericidal activity against Pseudomonas aeruginosa NCTC 6749 after 24 hrs; conditions: NCTC 6749, 24 h, read-out: MBC99.9
[20] = system: Pseudomonas aeruginosa; experiment: Bactericidal activity against Pseudomonas aeruginosa ATCC 27853 after 24 hrs; conditions: ATCC 27853, 24 h, read-out: MBC99.9
[21] = system: Staphylococcus epidermidis; experiment: Antimicrobial activity against methicillin-resistant Staphylococcus epidermidis isolate 404/10 after 18 hrs by twofold serial broth dilution method; conditions: isolate 404/10, 18 h
[22] = system: Staphylococcus epidermidis; experiment: Antimicrobial activity against methicillin-resistant Staphylococcus epidermidis isolate 407/10 after 18 hrs by twofold serial broth dilution method; conditions: isolate 407/10, 18 h
[23] = system: Staphylococcus epidermidis; experiment: Antimicrobial activity against methicillin-resistant Staphylococcus epidermidis isolate 409/10 after 18 hrs by twofold serial broth dilution method; conditions: isolate 409/10, 18 h
[24] = system: Staphylococcus epidermidis; experiment: Antimicrobial activity against methicillin-resistant Staphylococcus epidermidis isolate 422/10 after 18 hrs by twofold serial broth dilution method; conditions: isolate 422/10, 18 h
[25] = system: Staphylococcus epidermidis; experiment: Antimicrobial activity against methicillin-resistant Staphylococcus epidermidis isolate 454/11 after 18 hrs by twofold serial broth dilution method; conditions: isolate 454/11, 18 h
[26] = system: Staphylococcus epidermidis; experiment: Antimicrobial activity against methicillin-resistant Staphylococcus epidermidis isolate 455/11 after 18 hrs by twofold serial broth dilution method; conditions: isolate 455/11, 18 h
[27] = system: Staphylococcus epidermidis; experiment: Antimicrobial activity against methicillin-resistant Staphylococcus epidermidis isolate 457/11 after 18 hrs by twofold serial broth dilution method; conditions: isolate 457/11, 18 h
[28] = system: Staphylococcus epidermidis; experiment: Antimicrobial activity against methicillin-resistant Staphylococcus epidermidis isolate 459/11 after 18 hrs by twofold serial broth dilution method; conditions: isolate 459/11, 18 h
[29] = system: Staphylococcus epidermidis; experiment: Antimicrobial activity against methicillin-resistant Staphylococcus epidermidis isolate 461/11 after 18 hrs by twofold serial broth dilution method; conditions: isolate 461/11, 18 h
[30] = system: Staphylococcus epidermidis; experiment: Antimicrobial activity against methicillin-resistant Staphylococcus epidermidis isolate 469/11 after 18 hrs by twofold serial broth dilution method; conditions: isolate 469/11, 18 h
[31] = system: Staphylococcus epidermidis; experiment: Antimicrobial activity against methicillin-resistant Staphylococcus epidermidis isolate 470/11 after 18 hrs by twofold serial broth dilution method; conditions: isolate 470/11, 18 h
[32] = system: Staphylococcus epidermidis; experiment: Bactericidal activity against methicillin-resistant Staphylococcus epidermidis isolate 403/10 after 24 hrs; conditions: isolate 403/10, 24 h, read-out: MBC99.9
[33] = system: Staphylococcus epidermidis; experiment: Bactericidal activity against methicillin-resistant Staphylococcus epidermidis isolate 404/10 after 24 hrs; conditions: isolate 404/10, 24 h, read-out: MBC99.9
[34] = system: Staphylococcus epidermidis; experiment: Bactericidal activity against methicillin-resistant Staphylococcus epidermidis isolate 405/10 after 24 hrs; conditions: isolate 405/10, 24 h, read-out: MBC99.9
[35] = system: Staphylococcus epidermidis; experiment: Bactericidal activity against methicillin-resistant Staphylococcus epidermidis isolate 407/10 after 24 hrs; conditions: isolate 407/10, 24 h, read-out: MBC99.9
[36] = system: Staphylococcus epidermidis; experiment: Bactericidal activity against methicillin-resistant Staphylococcus epidermidis isolate 424/10 after 24 hrs; conditions: isolate 424/10, 24 h, read-out: MBC99.9
[37] = system: Staphylococcus epidermidis; experiment: Bactericidal activity against methicillin-resistant Staphylococcus epidermidis isolate 454/11 after 24 hrs; conditions: isolate 454/11, 24 h, read-out: MBC99.9
[38] = system: Staphylococcus epidermidis; experiment: Bactericidal activity against methicillin-resistant Staphylococcus epidermidis isolate 455/11 after 24 hrs; conditions: isolate 455/11, 24 h, read-out: MBC99.9
[39] = system: Staphylococcus epidermidis; experiment: Bactericidal activity against methicillin-resistant Staphylococcus epidermidis isolate 457/11 after 24 hrs; conditions: isolate 457/11, 24 h, read-out: MBC99.9
[40] = system: Staphylococcus epidermidis; experiment: Bactericidal activity against methicillin-resistant Staphylococcus epidermidis isolate 458/11 after 24 hrs; conditions: isolate 458/11, 24 h, read-out: MBC99.9
[41] = system: Staphylococcus epidermidis; experiment: Bactericidal activity against methicillin-resistant Staphylococcus epidermidis isolate 459/11 after 24 hrs; conditions: isolate 459/11, 24 h, read-out: MBC99.9
[42] = system: Staphylococcus epidermidis; experiment: Bactericidal activity against methicillin-resistant Staphylococcus epidermidis isolate 461/11 after 24 hrs; conditions: isolate 461/11, 24 h, read-out: MBC99.9
[43] = system: Staphylococcus epidermidis; experiment: Bactericidal activity against methicillin-resistant Staphylococcus epidermidis isolate 469/11 after 24 hrs; conditions: isolate 469/11, 24 h, read-out: MBC99.9

CC[C@@H](C(=O)[C@@H](C)[C@@H](O)[C@H](C)[C@@H]1O[C@@H]([C@@H](CC)C(=O)N(CCOC)CCOC)CC[C@@H]1C)[C@H]1O[C@]2(C=C[C@@H](O)[C@]3(CC[C@@](C)([C@H]4CC[C@](O)(CC)[C@H](C)O4)O3)O2)[C@H](C)C[C@@H]1C
> 256 µg/mL: MIC [4] | MIC [5] | MIC [6] | MIC [7] | MIC [8] | MIC [9] | MBC [11] | MBC [12] | MBC [13] | MBC [14] | MBC [15] | MBC [16] | MBC [17] | MBC [18] | MBC [19] | MBC [20] | MBC [32] | MBC [33] | MBC [34] | MBC [35] | MBC [36] | MBC [37] | MBC [38] | MBC [39] | MBC [40] | MBC [41] | MBC [42] | MBC [43]
512 µg/mL: MIC [10]
64 µg/mL: MIC [1] | MIC [25]
128 µg/mL: MIC [2] | MIC [3] | MIC [21] | MIC [22] | MIC [23] | MIC [24] | MIC [26] | MIC [27] | MIC [28] | MIC [30]
256 µg/mL: MIC [29] | MIC [31]

CC[C@@H](C(=O)[C@@H](C)[C@@H](O)[C@H](C)[C@@H]1O[C@@H]([C@@H](CC)C(=O)N2CCOCC2)CC[C@@H]1C)[C@H]1O[C@]2(C=C[C@@H](O)[C@]3(CC[C@@](C)([C@H]4CC[C@](O)(CC)[C@H](C)O4)O3)O2)[C@H](C)C[C@@H]1C
256 µg/mL: MIC [2] | MIC [4] | MIC [5] | MIC [6] | MIC [7] | MIC [9] | MIC [21] | MIC [23] | MIC [24] | MIC [26] | MIC [27] | MIC [31]
> 256 µg/mL: MBC [11] | MBC [12] | MBC [13] | MBC [14] | MBC [15] | MBC [16] | MBC [17] | MBC [18] | MBC [19] | MBC [20] | MIC [22] | MIC [29] | MIC [30] | MBC [32] | MBC [33] | MBC [34] | MBC [35] | MBC [36] | MBC [37] | MBC [38] | MBC [39] | MBC [40] | MBC [41] | MBC [42] | MBC [43]
128 µg/mL: MIC [1] | MIC [3] | MIC [8] | MIC [10] | MIC [25] | MIC [28]

O=C(O)c1cn(C2CC2)c2cc(N3CCNCC3)c(F)cc2c1=O [CIPROFLOXACIN]
0.125 µg/mL: MBC [19] | MIC [31]
> 256 µg/mL: MBC [33] | MBC [35] | MBC [38] | MBC [39] | MBC [40] | MBC [41]
0.0016 µg/mL: MBC [16] | MBC [17]
2 µg/mL: MBC [12] | MBC [14] | MIC [23] | MIC [24]
256 µg/mL: MBC [36]
128 µg/mL: MBC [32] | MBC [34] | MBC [43]
0.25 µg/mL: MIC [1] | MIC [3] | MBC [18] | MBC [20] | MIC [29] | MBC [37]
8 µg/mL: MIC [30]
64 µg/mL: MIC [22]
1 µg/mL: MBC [15] | MBC [42]
32 µg/mL: MIC [21] | MIC [26] | MIC [27] | MIC [28]
0.5 µg/mL: MIC [2] | MBC [11]
0.0625 µg/mL: MIC [8] | MIC [25]
